Source: US9181222B2, “Protein kinase C inhibitors and uses thereof” (Rigel Pharmaceuticals, Inc., priority 2010, dated 2015)

Test system: Human primary T cells
Assay: IL-2 ELISA, Human Primary T Cell, Anti-CD3+CD28+ (Whole Cell Assay)
Type: cell-based
Details: IL-2 by ELISA, human primary T cells pre-incubated with compound 1 hr, stimulated with αCD3 and αCD28, 24 hours
Description: IL-2 ELISA, Human Primary T Cell, Anti-CD3+CD28+ (Whole Cell Assay)
Human primary T cell isolation and culture: Human primary T cells were prepared as follows. Whole blood was obtained from a healthy volunteer, mixed 1:1 with PBS, layered on to Ficoll Hypaque (Amersham Pharmacia Biotech, Piscataway, N.J., Catalog #17-1440-03) in 2:1 blood/PBS:ficoll ratio and centrifuged for 30 min at 4° C. at 1750 rpm. The cells at the serum: ficoll interface were recovered and washed twice with 5 volumes of PBS. These freshly isolated human peripheral blood mononuclear cells were cultured in Yssel's medium containing 40 U/mL IL2 in a flask pre-coated with 1 μg/mL αCD3 and 5 μg/mL αCD28 (Anti-Human CD3, BD Pharmingen Catalog #555336, Anti-Human CD28, Beckman Coulter Catalog #1M1376). The cells were stimulated for 3-4 days, then transferred to a fresh flask and maintained in RPMI (RPMI-1640 with L-Glutamine; Mediatech, Inc., Herndon Va., cat. #10-040-CM) with 10% FBS and 40 U/mL IL-2. The primary T-cells were then washed twice with PBS to remove the IL-2.
Primary T cell stimulation and IL2 ELISA: Human primary T cells (100,000 cells per well) were pre-incubated with or without test compound in Yssel's medium for 1 hr at 37° C. Cells were then stimulated by transferring them to round-bottom 96-well plates pre-coated with 1 μg/ml αCD3 and 5 μg/ml αCD28. For counter assay, cells were instead stimulated by adding 8× stock solutions of PMA and ionomycin in Yssels (for final concentrations of 0.5 ng/ml PMA and 0.1 μM ionomycin, both from Calbiochem). Cells were incubated at 37° C. for 24 hours before 100 μL supernatants were harvested for quantification of IL-2 by ELISA using Human IL-2 Duoset ELISA Kit from R and D Systems, Cat. # DY202E.

**Q.** With `CC1(C)CC(Nc2nc(Nc3cc(-n4cnnn4)c(C4CC4)cc3F)ncc2C#N)CC(C)(C)N1` [Compound I-2, 2-(4-Cyclopropyl-2-fluoro-5-tetrazol-1-yl-phenylamino)-4-(2,2,6,6-tetramethyl-piperidin-4-ylamino)-pyrimidine-5-carbonitrile] as the compound, how does the IC50 read?
**A.** Its IC50 is less than 250 nM.

**Q.** For `CC1(C)CC(Nc2nc(Nc3cc(-n4cnnn4)c(C4CC4)cc3F)ncc2C(N)=O)CC(C)(C)N1` [Compound I-3, 2-(4-Cyclopropyl-2-fluoro-5-tetrazol-1-yl-phenylamino)-4-(2,2,6,6-tetramethyl-piperidin-4-ylamino)-pyrimidine-5-carboxylic acid amide], which IC50 is on record?
**A.** Its IC50 is 500 to 1000 nM.

**Q.** Which IC50 does the source give for `CC1(C)CC(Nc2nc(Nc3cc(F)c(C4CC4)c(-n4cnnn4)c3)ncc2C#N)CC(C)(C)N1` [Compound I-4, 2-(4-Cyclopropyl-3-fluoro-5-tetrazol-1-yl-phenylamino)-4-(2,2,6,6-tetramethyl-piperidin-4-ylamino)-pyrimidine-5-carbonitrile] here?
**A.** Its IC50 is less than 250 nM.

**Q.** Which IC50 does the source give for `CC1(C)CC(Nc2nc(Nc3cc(F)c(C4CC4)c(-n4cnnn4)c3)ncc2F)CC(C)(C)N1` [Compound I-5, N2-(4-Cyclopropyl-3-fluoro-5-tetrazol-1-yl-phenyl)-5-fluoro-N4-(2,2,6,6-tetramethyl-piperidin-4-yl)-pyrimidine-2,4-diamine] here?
**A.** Its IC50 is less than 250 nM.

**Q.** With `CC1(C)CC(Nc2nc(Nc3cc(C4CC4)c(F)c(-n4cnnn4)c3)ncc2C#N)CC(C)(C)N1` [Compound I-6, 2-(3-Cyclopropyl-4-fluoro-5-tetrazol-1-yl-phenylamino)-4-(2,2,6,6-tetramethyl-piperidin-4-ylamino)-pyrimidine-5-carbonitrile] as the compound, how does the IC50 read?
**A.** Its IC50 is less than 250 nM.

**Q.** For `CC1(C)CC(Nc2nc(Nc3cc(C4CC4)c(F)c(-n4cnnn4)c3)ncc2F)CC(C)(C)N1` [Compound I-7, N2-(3-Cyclopropyl-4-fluoro-5-tetrazol-1-yl-phenyl)-5-fluoro-N4-(2,2,6,6-tetramethyl-piperidin-4-yl)-pyrimidine-2,4-diamine], which IC50 is on record?
**A.** Its IC50 is less than 250 nM.

**Q.** With `CC(C)c1cc(F)c(Nc2ncc(C#N)c(NC3CC(C)(C)NC(C)(C)C3)n2)cc1-n1cnnn1` [Compound I-8, 2-(2-Fluoro-4-isopropyl-5-tetrazol-1-yl-phenylamino)-4-(2,2,6,6-tetramethyl-piperidin-4-ylamino)-pyrimidine-5-carbonitrile] as the compound, how does the IC50 read?
**A.** The IC50 was less than 250 nM.

**Q.** `CC(C)c1ccc(Nc2ncc(F)c(NC3CC(C)(C)NC(C)(C)C3)n2)cc1-n1cnnn1` [Compound I-9, 5-Fluoro-N2-(4-isopropyl-3-tetrazol-1-yl-phenyl)-N4-(2,2,6,6-tetramethyl-piperidin-4-yl)-pyrimidine-2,4-diamine] was tested. Which IC50 did it give?
**A.** Its IC50 is less than 250 nM.

**Q.** `CC(C)c1ccc(Nc2ncc(C(N)=O)c(NC3CC(C)(C)NC(C)(C)C3)n2)cc1-n1cnnn1` [Compound I-10, 2-(4-Isopropyl-3-tetrazol-1-yl-phenylamino)-4-(2,2,6,6-tetramethyl-piperidin-4-ylamino)-pyrimidine-5-carboxylic acid amide] was tested. Which IC50 did it give?
**A.** The IC50 was 250 to 500 nM.

**Q.** How did the IC50 turn out when `CC(C)c1ccc(Nc2ncc(C#N)c(NC3CC(C)(C)NC(C)(C)C3)n2)cc1-n1cnnn1` [Compound I-11, 2-(4-Isopropyl-3-tetrazol-1-yl-phenylamino)-4-(2,2,6,6-tetramethyl-piperidin-4-ylamino)-pyrimidine-5-carbonitrile] was run?
**A.** Its IC50 is less than 250 nM.

**Q.** With `CC1(C)CC(Nc2nc(Nc3cc(-n4cnnn4)c(C4CC4)cc3F)ncc2F)CC(C)(C)N1` [Compound I-12, N2-(4-Cyclopropyl-2-fluoro-5-tetrazol-1-yl-phenyl)-5-fluoro-N4-(2,2,6,6-tetramethyl-piperidin-4-yl)-pyrimidine-2,4-diamine] as the compound, how does the IC50 read?
**A.** Its IC50 is less than 250 nM.

**Q.** For `CC1(C)CC(Nc2nc(Nc3cc(-n4cnnn4)ccc3F)ncc2F)CC(C)(C)N1` [Compound I-13, 5-Fluoro-N2-(2-fluoro-5-tetrazol-1-yl-phenyl)-N4-(2,2,6,6-tetramethyl-piperidin-4-yl)-pyrimidine-2,4-diamine], which IC50 is on record?
**A.** The IC50 was less than 250 nM.

**Q.** `CN1C(C)(C)CC(Nc2nc(Nc3cc(-n4cnnn4)ccc3F)ncc2F)CC1(C)C` [Compound I-14, 5-Fluoro-N2-(2-fluoro-5-tetrazol-1-yl-phenyl)-N4-(1,2,2,6,6-pentamethyl-piperidin-4-yl)-pyrimidine-2,4-diamine] was tested. Which IC50 did it give?
**A.** Its IC50 is less than 250 nM.

**Q.** `CC1(C)CC(Nc2nc(Nc3ccc(C4CC4)c(-n4nnnc4C(F)(F)F)c3)ncc2F)CC(C)(C)N1` [Compound I-15, N2-[4-Cyclopropyl-3-(5-trifluoromethyl-tetrazol-1-yl)-phenyl]-5-fluoro-N4-(2,2,6,6-tetramethyl-piperidin-4-yl)-pyrimidine-2,4-diamine] was tested. Which IC50 did it give?
**A.** The IC50 was less than 250 nM.

**Q.** `CC(C)c1nnnn1-c1cc(Nc2ncc(F)c(NC3CC(C)(C)NC(C)(C)C3)n2)c(F)cc1C1CC1` [Compound I-16, N2-(4-cyclopropyl-2-fluoro-5-(5-isopropyl-1H-tetrazol-1-yl)phenyl)-5-fluoro-N4-(2,2,6,6-tetramethylpiperidin-4-yl)pyrimidine-2,4-diamine] was tested. Which IC50 did it give?
**A.** Its IC50 is less than 250 nM.

**Q.** How did the IC50 turn out when `CC1(C)CC(Nc2nc(Nc3cc(-n4nnnc4C4CC4)c(C4CC4)cc3F)ncc2F)CC(C)(C)N1` [Compound I-17, N2-(4-cyclopropyl-5-(5-cyclopropyl-1H-tetrazol-1-yl)-2-fluorophenyl)-5-fluoro-N4-(2,2,6,6-tetramethylpiperidin-4-yl)pyrimidine-2,4-diamine] was run?
**A.** Its IC50 is less than 250 nM.

**Q.** With `Cc1nnnn1-c1cc(Nc2ncc(F)c(NC3CC(C)(C)NC(C)(C)C3)n2)c(F)cc1C1CC1` [Compound I-18, N2-(4-cyclopropyl-2-fluoro-5-(5-methyl-1H-tetrazol-1-yl)phenyl)-5-fluoro-N4-(2,2,6,6-tetramethylpiperidin-4-yl)pyrimidine-2,4-diamine] as the compound, how does the IC50 read?
**A.** The IC50 was less than 250 nM.

**Q.** `CC1(C)CC(Nc2nc(Nc3cc(-n4nnnc4C(F)(F)F)c(C4CC4)cc3F)ncc2F)CC(C)(C)N1` [Compound I-19, N2-(4-cyclopropyl-2-fluoro-5-(5-(trifluoromethyl)-1H-tetrazol-1-yl)phenyl)-5-fluoro-N4-(2,2,6,6-tetramethylpiperidin-4-yl)pyrimidine-2,4-diamine] was tested. Which IC50 did it give?
**A.** Its IC50 is less than 250 nM.

**Q.** For `CC1(C)CC(Nc2nc(Nc3cc(-n4nnnc4CF)c(C4CC4)cc3F)ncc2F)CC(C)(C)N1` [Compound I-20, N2-(4-cyclopropyl-2-fluoro-5-(5-(fluoromethyl)-1H-tetrazol-1-yl)phenyl)-5-fluoro-N4-(2,2,6,6-tetramethylpiperidin-4-yl)pyrimidine-2,4-diamine], which IC50 is on record?
**A.** Its IC50 is less than 250 nM.
